Measured values from patent US7332292B2, “Constitutively translocating cell line” (priority 2002, dated 2008).

System: angiotensin II type 1A receptor (AT1AR)
Experiment: GRK2-C20 induced ligand-independent arrestinGFP translocation to the AT1AR in U2OS cells (INCell Analyzer)
Assay type: cell-based
Description: U2OS cells stably expressing arrestinGFP and the angiotensin II type 1A receptor (AT1 AR) were transiently transduced with human GRK2-C20 using a baculovirus expression system. A range of GRK2-C20 expression levels was obtained by using varying amounts (serial dilution) of the GRK2-C20 baculovirus.
To test whether the ligand-independent arrestinGFP translocation could be blocked by an antagonist/inverse agonist of the AT1AR, the cells were treated with losartan. Losartan is a nonpeptide molecule that functions as an antagonist/inverse agonist of the AT1AR. Losartan (1 μM final concentration) was added to the cells either immediately after transduction for an 18 hour incubation or 15 hours after transduction for a 3 hour incubation. At the end of the incubation, the cells were analyzed for arrestinGFP translocation using the INCell Analyzer system.

In the case of `CCCCc1nc(Cl)c(CO)n1Cc1ccc(-c2ccccc2-c2nnn[nH]2)cc1` [losartan, Losartan], the “effect on ligand-independent translocation of arrestinGFP to the AT1AR induced by expression of GRK2-C20” value (losartan 1 μM final concentration, 3 hour or 18 hour incubation, U2OS cells stably expressing arrestinGFP and AT1AR) was “blocks the ligand-independent translocation of arrestinGFP to the AT1AR” and the “inhibition of the ligand-independent translocation of arrestinGFP to the AT1AR” value (losartan 1 μM, 18 hour incubation, lower levels of GRK2-C20 expression (1:64, 1:128, and 1:256 dilutions of baculovirus)) was “greater than 90%”.
